One experiment addresses T1, human AT1 receptor (Homo sapiens, UniProt P30556).
T1 construct: expressed in transfected cells; host or cells: CHO-K1
T1 sequence (P30556 1-359): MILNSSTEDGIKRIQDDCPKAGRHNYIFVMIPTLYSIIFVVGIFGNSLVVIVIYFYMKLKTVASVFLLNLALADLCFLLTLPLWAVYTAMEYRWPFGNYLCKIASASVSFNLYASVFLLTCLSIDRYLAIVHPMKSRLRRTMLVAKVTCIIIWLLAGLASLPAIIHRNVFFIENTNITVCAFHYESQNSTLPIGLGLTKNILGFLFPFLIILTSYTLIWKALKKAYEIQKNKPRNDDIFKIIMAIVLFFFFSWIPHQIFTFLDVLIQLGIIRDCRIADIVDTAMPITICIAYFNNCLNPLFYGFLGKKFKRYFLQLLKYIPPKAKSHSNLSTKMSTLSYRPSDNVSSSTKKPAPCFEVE
The experiment can be described thus: Binding assay using human AT1 receptor-expressing CHO-K1 cell membrane fraction ([125I]-angiotensin II). The following applies: 22.5 pM [125I]-angiotensin II, 9 μg AT1 membrane, 1 hr room temperature; read-out: AT1 receptor binding inhibitory action (IC50 (nM)). The method, then: The membrane fraction for human AT1 receptor binding assay was prepared as follows. CHO-K1 cell capable of stable expression of human AT1 receptor was cultured, recovered, suspended in homogenize buffer (10 mM NaHCO3 (pH 7.4), 5 mM EDTA, 1×Complete EDTA free) [manufactured by Roche, Switzerland], and homogenized. The homogenate was centrifuged at low-speed (900×g, 10 min, 4° C.), and the supernatant was recovered and ultracentrifuged (90,000×g, 1 hr, 4° C.). The supernatant was discarded, and the pellets were resuspended in resuspension buffer (50 mM Tris (pH 7.4), 1 mM EDTA, 1×Complete EDTA free).
The binding assay was performed in the presence of 22.5 pM [^125I]-angiotensin II [manufactured by PerkinElmer, USA], 9 μg of AT1 membrane and test compound in 100 μL (total reaction volume) of reaction buffer (50 mM Tris (pH 7.4), 10 mM MgCl2 supplemented or not supplemented with 0.3 mg/mL fatty acid-free bovine serum albumin [manufactured by Wako Pure Chemical Industries, Ltd., Japan]). The reaction mixture was incubated in 96 well polypropylene plate for 1 hr at room temperature, and the reaction was quenched by rapid filtration (96 well cell harvester) through a GF/C filter treated with wash buffer (50 mM Tris (pH 7.4)). Subsequently, the filter was washed 5 times with 0.3 mL of ice-cooled wash buffer. The filter was air-dried, and [^125I]-angiotensin II binding radioactivity was assayed with Top Count scintillation counter. Total binding was measured in the presence of 1% DMSO and nonspecific binding was measured in the presence of 1 μM CV-11974. The binding data was analyzed by GraphPad Prism program and the IC50 value (compound concentration showing 50% of the maximum value of inhibition percent) of the test compound was calculated.

The next experiment concerns the target T2, PPARγ (Homo sapiens, UniProt P37231).
T2 construct: expressed in transfected cells; host or cells: CHO-K1
T2 sequence (P37231 1-477 isoform P37231-2): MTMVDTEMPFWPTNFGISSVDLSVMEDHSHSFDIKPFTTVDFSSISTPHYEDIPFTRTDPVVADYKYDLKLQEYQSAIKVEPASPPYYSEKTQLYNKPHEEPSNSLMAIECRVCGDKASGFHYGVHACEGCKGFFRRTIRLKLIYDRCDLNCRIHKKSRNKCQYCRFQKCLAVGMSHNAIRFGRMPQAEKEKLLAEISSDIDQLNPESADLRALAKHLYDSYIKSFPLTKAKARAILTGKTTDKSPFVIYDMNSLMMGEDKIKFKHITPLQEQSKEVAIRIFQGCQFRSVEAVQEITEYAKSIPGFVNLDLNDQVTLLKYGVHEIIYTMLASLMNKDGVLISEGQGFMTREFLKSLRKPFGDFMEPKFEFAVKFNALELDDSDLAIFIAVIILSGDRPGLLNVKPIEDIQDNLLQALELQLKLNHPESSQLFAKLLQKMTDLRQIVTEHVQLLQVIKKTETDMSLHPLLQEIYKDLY
T2 sequence (P19793 1-462 partner): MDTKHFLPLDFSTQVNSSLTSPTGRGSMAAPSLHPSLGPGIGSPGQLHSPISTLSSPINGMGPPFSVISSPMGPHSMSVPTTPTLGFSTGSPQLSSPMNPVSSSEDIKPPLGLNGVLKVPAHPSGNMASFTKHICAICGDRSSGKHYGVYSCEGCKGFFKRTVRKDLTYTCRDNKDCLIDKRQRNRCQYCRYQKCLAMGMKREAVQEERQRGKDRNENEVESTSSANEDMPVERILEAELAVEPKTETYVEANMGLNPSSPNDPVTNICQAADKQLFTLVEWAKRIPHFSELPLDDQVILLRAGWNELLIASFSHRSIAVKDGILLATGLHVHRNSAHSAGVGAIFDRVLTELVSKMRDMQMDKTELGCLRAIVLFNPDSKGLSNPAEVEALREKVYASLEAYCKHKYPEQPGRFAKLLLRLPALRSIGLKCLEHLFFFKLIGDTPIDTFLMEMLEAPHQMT
The experiment can be described thus: Evaluation of PPARγ activating action (luciferase reporter in PPARγ:RXRα:4ERPP/CHO-K1 cells). It is filed as cell-based. Conditions: CHO-K1, 24 h, read-out: PPARγ activating action (activation % (10^−6 M)). How it is done: PPARγ:RXRα:4ERPP/CHO-K1 cells obtained in the following Reference Example 5 were cultured in F12 medium [manufactured by INVITROGEN, USA] containing 10% fetal bovine serum [manufactured by MOREGATE, Australia], seeded in a 96-well half area white plate [manufactured by Corning Coster Corporation, USA] at the density of 5×10^3 cells/well and cultured in a CO2 gas incubator at 37° C. overnight.
Then the medium was removed from the 96-well half area white plate, 45 μl of Ham's F12 medium containing 0.1% fatty acid-free bovine serum albumin (BSA) and 5 μl of test compound were added, and the cells were cultured in a CO2 gas incubator at 37° C. for 1 day. The medium was removed and 20 μl of PicaGene 7.5 [manufactured by TOYO INK MFG. CO., LTD.,.Japan] diluted 2-fold with HBSS (HANKS' BALANCED SALT SOLUTION) [manufactured by BIO WHITTAKER, USA] was added. After stirring, the luciferase activity was determined using 1420 ARVO Multilabel Counter [manufactured by PerkinElmer, USA].
The percent (%) was calculated from the luciferase activity of each test compound when the luciferase activity of the control compound (compound X: 5-[3-(4-{[2-(2-furyl)-5-methyl-1,3-oxazol-4-yl]methoxy}-3-methoxyphenyl)propyl]-1,3-oxazolidine-2,4-dione) (1 μM) was 100% and that of the test compound non-administration group was 0%.
A CHO-K1 cell cultured in a 150 cm^2 cell culture flask [manufactured by Corning Costar Corporation, USA] containing Ham's F12 medium [manufactured by INVITROGEN, USA] supplemented with 10% fetal bovine serum [manufactured by INVITROGEN, USA] was scraped by treating with 0.5 g/L trypsin-0.2 g/L EDTA (ethylenediaminetetraacetic acid) [manufactured by Life Technologies, Inc., USA], and then the cell was washed with PBS (Phosphate-buffered saline) [manufactured by INVITROGEN, USA], centrifuged (1000 rpm, 5 minutes) and suspended in PBS. Subsequently, DNA was introduced into the cell under the conditions shown below using GENE PULSER [manufactured by Bio-Rad Laboratories, USA].
Namely, to a cuvette having a 0.4 cm gap were added 8×10^6 cells and 10 μg of plasmid pVgRXR2-hPPARγ obtained in Reference Example 4 and 10 μg of reporter plasmid pGL3-4ERPP-TK neo obtained in Reference Example 3, which was subjected to electroporation at the voltage of 0.25 kV under the capacitance of 960 μF. Subsequently, the cell was transferred into a F12 medium containing 10% fetal bovine serum and cultured for 24 hours, and then the cell was scraped again and centrifuged, and then suspended in Ham's F12 medium containing 10% fetal bovine serum supplemented with 500 μg/ml of Geneticin [manufactured by INVITROGEN, USA] and 250 μg/ml of Zeocin [manufactured by INVITROGEN, USA]. The obtained suspension was diluted to the density of 10^4 cells/ml and inoculated in a 96-well plate [manufactured by Corning Costar Corporation, USA], which was cultured in a CO2 gas incubator at 37° C., whereby obtaining a Geneticin- and Zeocin-resistant transformant.
Subsequently, after the transformant cell line thus obtained was cultured in a 24-well plate [manufactured by Corning Costar Corporation, USA], a cell line in which the luciferase was expressed and induced, i.e., PPARγ:RXRα:4ERPP/CHO-K1 cell was selected by the addition of 10 μM pioglitazone hydrochloride.
(In general: A reporter such as luciferase makes a cellular process visible.)

Setting [1] is: test compound 10^−6 M, luciferase activity relative to control compound X (1 μM) = 100%, non-administration group = 0%.

Where two headings read alike, the source gives them in different places.

Consider `CCCCc1nc(COC)n(CC(C)(C)C)c(=O)c1Cc1ccc(-c2ccccc2-c2noc(=O)[nH]2)cc1` [Example 51, 6-butyl-3-(2,2-dimethylpropyl)-2-(methoxymethyl)-5-{[2′-(5-oxo-4,5-dihydro-1,2,4-oxadiazol-3-yl)biphenyl-4-yl]methyl}pyrimidin-4(3H)-one], for which, on human AT1 receptor, the IC50 (in general, the concentration that inhibits the measured activity by half) came out at 1.5 nM. The activation at 1 µM at PPARγ (setting [1]) is 19.6%.

In the case of `CCCCc1nc(C)n(Cc2ccc(OC)cc2)c(=O)c1Cc1ccc(-c2ccccc2-c2noc(=O)[nH]2)cc1` [Example 58, 6-butyl-3-(4-methoxybenzyl)-2-methyl-5-{[2′-(5-oxo-4,5-dihydro-1,2,4-oxadiazol-3-yl)biphenyl-4-yl]methyl}pyrimidin-4(3H)-one], the IC50 at human AT1 receptor is 1.5 nM. For the same compound, at PPARγ (setting [1]), the activation at 1 µM was 55.1%.

As for `CCCCc1nc(C)n(Cc2nc3ccccc3s2)c(=O)c1Cc1ccc(-c2ccccc2-c2noc(=O)[nH]2)cc1` [Example 64, 3-(1,3-benzothiazol-2-ylmethyl)-6-butyl-2-methyl-5-{[2′-(5-oxo-4,5-dihydro-1,2,4-oxadiazol-3-yl)biphenyl-4-yl]methyl}pyrimidin-4(3H)-one], the IC50 on human AT1 receptor came out at 2 nM. In addition, the activation at 1 µM at PPARγ (setting [1]) was 59.9%.

Consider `CCCCc1nc(C)n(C(C)c2ccccc2)c(=O)c1Cc1ccc(-c2ccccc2-c2noc(=O)[nH]2)cc1` (centres unmarked) [Example 67, 6-butyl-2-methyl-5-{[2′-(5-oxo-4,5-dihydro-1,2,4-oxadiazol-3-yl)biphenyl-4-yl]methyl}-3-(1-phenylethyl)pyrimidin-4(3H)-one], for which, on human AT1 receptor, the IC50 was found to be 2 nM. Further, the activation at 1 µM on PPARγ (setting [1]) is 49.4%.

Consider `CCCCc1nc(C)n(Cc2ccc(OC)nc2)c(=O)c1Cc1ccc(-c2ccccc2-c2noc(=O)[nH]2)cc1` [Example 71, 6-butyl-3-[(6-methoxypyridin-3-yl)methyl]-2-methyl-5-{[2′-(5-oxo-4,5-dihydro-1,2,4-oxadiazol-3-yl)biphenyl-4-yl]methyl}pyrimidin-4(3H)-one], for which the IC50 on human AT1 receptor turned out to be 1.8 nM. In addition, the activation at 1 µM at PPARγ (setting [1]) came out at 46.3%.

Regarding `CCCc1nc(C)n(CC2CCCCO2)c(=O)c1Cc1ccc(-c2ccccc2-c2noc(=O)[nH]2)cc1` (centres unmarked) [Example 81, 2-methyl-5-{[2′-(5-oxo-4,5-dihydro-1,2,4-oxadiazol-3-yl)biphenyl-4-yl]methyl}-6-propyl-3-(tetrahydro-2H-pyran-2-ylmethyl)pyrimidin-4(3H)-one], at human AT1 receptor, the IC50 is 1.6 nM. In addition, the activation at 1 µM on PPARγ (setting [1]) amounted to 62.9%.

As to `CCCc1nc(C)n(-c2ccc(OC(C)C)cc2)c(=O)c1Cc1ccc(-c2ccccc2-c2noc(O)n2)cc1` [Example 88, 3-(4-isopropoxyphenyl)-2-methyl-5-{[2′-(5-oxo-4,5-dihydro-1,2,4-oxadiazol-3-yl)biphenyl-4-yl]methyl}-6-propylpyrimidin-4(3H)-one], the IC50 at human AT1 receptor was 1.7 nM. Besides, on PPARγ (setting [1]), the activation at 1 µM came out at 31.2%.

Consider `CCCCc1nc(C)n(CCc2ccc(OC)cc2)c(=O)c1Cc1ccc(-c2ccccc2-c2noc(=O)[nH]2)cc1` [Example 94, 6-butyl-3-[2-(4-methoxyphenyl)ethyl]-2-methyl-5-{[2′-(5-oxo-4,5-dihydro-1,2,4-oxadiazol-3-yl)biphenyl-4-yl]methyl}pyrimidin-4(3H)-one], for which the IC50 on human AT1 receptor is 1.8 nM. For the same compound, at PPARγ (setting [1]), the activation at 1 µM amounted to 41.5%.

In the case of `CCCCc1nc(CF)n(Cc2ccccc2)c(=O)c1Cc1ccc(-c2ccccc2-c2noc(=O)[nH]2)cc1` [Example 103, 3-benzyl-6-butyl-2-(fluoromethyl)-5-{[2′-(5-oxo-4,5-dihydro-1,2,4-oxadiazol-3-yl)biphenyl-4-yl]methyl}pyrimidin-4(3H)-one], the IC50 on human AT1 receptor turned out to be 1.5 nM. The activation at 1 µM on PPARγ (setting [1]) worked out at 50.2%.

As for `CCCCc1nc(CC)n(Cc2ccccc2)c(=O)c1Cc1ccc(-c2ccccc2-c2noc(=O)[nH]2)cc1` [Example 105, 3-benzyl-6-butyl-2-ethyl-5-{[2′-(5-oxo-4,5-dihydro-1,2,4-oxadiazol-3-yl)biphenyl-4-yl]methyl}pyrimidin-4(3H)-one], on human AT1 receptor, the IC50 worked out at 1.9 nM. The activation at 1 µM on PPARγ came to 64.1%.

These data come from patent US20100056526A1, “HETEROMONOCYCLIC COMPOUND AND USE THEREOF” (Takeda Pharmaceutical Company Limited, priority 2006, published 2010).
